The values below come from patent publication US9750761B2, “LDH inhibitors as treatment for fibrosis and fibrotic-related disorders” (University of Rochester, priority 2014, dated 2017).

Data set [1] relates to primary human lung fibroblasts. The data set is described as follows: Radiation-induced myofibroblast differentiation (α-SMA, LDHA Western blot). The conditions noted are these: SB431542 2.5 μM from 1 hour before 7 Gy, 5 days post radiation. Format: cell-based.
Description: Cell Culture and Irradiations: Fibroblasts were cultured in Eagle's minimum essential media (Life Technologies, Gaithersburg, Md.) supplemented with 10% FBS (Sigma Aldrich, St. Louis, Mo.), 2 mM L-Glutamine, antibiotic and antimycotic (Gibco, Carlsbad, Calif.) at 37° C. with 7% CO2. Cells were irradiated with a ^137Cs γ-ray source at approximately 2.70 cGy/min dose rate at indicated doses. Human recombinant TGF-β1 (R&D systems, Minneapolis, Minn.) was used at 1 ng/ml. […] TGF-β1 receptor 1 was inhibited using SB431542 (Sigma Aldrich) at 2.5 μM starting 1 hour prior to irradiations.
Western Blotting: Cell lysates were run on SDS-PAGE under reducing conditions and probed for expression of α-SMA (Sigma Aldrich), LDHA (Abcam, Cambridge, Mass.). Glyceraldehyde 3-phosphate dehydrogenase (Abcam) was used as a loading control.
The subject of data set [2] is primary human lung fibroblasts. Briefly: Alamar blue assay. Format: cell-based. The settings on record: 72 hours. How it is done: Alamar blue assay: Fibroblasts were cultured with and without TGF-β and/or gossypol for 72 hours and subsequently incubated with Alamar blue (Invitrogen, Grand Island, N.Y.). Alamar blue incorporation was determined by spectrophotometric analysis per the manufacturer's protocol.
Based on the foregoing results, it was believed that gossypol inhibits endogenous LDH activity, thus reducing lactate production and subsequent lactate-dependent activation of latent TGF-β in the medium. To investigate the mechanism of action of gossypol, fibroblasts were first treated with TGF-β for 72 hours. Next, protein lysates were harvested and incubated with increasing concentrations of gossypol for one hour. The LDH activity of each lysate was then determined with a standardized LDH kinetic activity assay. […] Next, it was investigated whether gossypol could prevent the extracellular accumulation of lactate by treated fibroblasts. […] To confirm that gossypol inhibits extracellular accumulation of lactate, the rate of extracellular acidification was measured using the commercially available Seahorse Bioassay. […] To determine whether the effects of gossypol were dependent on toxic effects on the cells, the Alamar blue assay was utilized.
For orientation: Resazurin is reduced to fluorescent resorufin, in cell work by metabolically active cells.

Regarding `NC(=O)c1ccc(-c2nc(-c3ccc4c(c3)OCO4)c(-c3ccccn3)[nH]2)cc1` [SB431542], the “radiation-induced α-SMA expression” value in data set [1] is “significantly attenuated radiation-induced α-SMA expression”.

Turning to `Cc1cc2c(C(C)C)c(O)c(O)c(C=O)c2c(O)c1-c1c(C)cc2c(C(C)C)c(O)c(O)c(C=O)c2c1O` [gossypol], the Alamar blue reduction result in data set [2] (1 mM gossypol) and in data set [2] (5 mM gossypol) was “no significant effect on Alamar blue reduction” throughout. Also, the “decrease in Alamar blue reduction” value in data set [2] (10 mM gossypol) worked out at 50%.
